This note sets out measurements from US9523097B2, “Engineering rubber production in plants” (The United States of America, as represented by the …, priority 2013, dated 2016).

The test system of one test is guayule explants. The settings on record: for Size of Callus with multi shoots: 5-point scale. The method, then:
To evaluate the effect of calcium nitrate on guayule regeneration, guayule explants were cultured on MS basal medium with plant growth regulators (PGRs) (1.0 mg·L^−1 BA and 0.1 mg·L^−1 NAA) and calcium nitrate. […] calcium nitrate concentrations, 0, 100, 250, 500, 750, 1000 and 1500 mg·L^−1, were tested (Table 3). Calcium nitrate was added to the culture medium before adjusting the pH to 5.7, prior to autoclaving. DKW basal medium (0.75 mg·L^−1 BA and 0.25 mg·L^−1 NAA) was used as a control.

In another test the test system is guayule leaf explants. The test can be described thus: Resistance of regenerated shoot on media with spectinomycin. It counts as cell-based, Parthenium argentatum. As for the experimental part:
To confirm whether the guayule explants were resistant to spectinomycin, leaf explants from control plants were cultured on regeneration DKW media that contained 0.75 mg·L^−1 BA and 0.125 mg·L^−1 NAA at various spectinomycin antibiotic levels. Several concentration of spectinomycin (0, 2, 4, 6, 8, 10, 12, 14, 16, 18 and 20 mg·L^−1) was added to the media to confirm the effects of antibiotic concentration on regeneration.

Read-outs that look alike come from different tables or passages of the source.

Turning to `O.O.O.O.O=[N+]([O-])[O-].O=[N+]([O-])[O-].[Ca+2]` [Calcium Nitrate, calcium nitrate tetrahydrate], the “Size of Callus with multi shoots” value is given as 3.0b in the test with guayule explants (100 mg·L−1, DKW with 0.75 mg·L−1 BA and 0.25 mg·L−1 NAA); 4.5a with guayule explants (100 mg·L−1, MS with 1.0 mg·L−1 BA and 0.1 mg·L−1 NAA); 2.9b in the test on guayule explants (250 mg·L−1, DKW with BA/NAA); 4.4a in the test with guayule explants (250 mg·L−1, MS with BA/NAA); 2.2bc in the test with guayule explants (500 mg·L−1, DKW with BA/NAA); 4.1ab with guayule explants (500 mg·L−1, MS with BA/NAA). The “Size of Callus with multi shoots” value in the test with guayule explants (1000 mg·L−1, DKW with BA/NAA) is 2.0c; in the test with guayule explants (1000 mg·L−1, MS with BA/NAA) it was 3.6c; with guayule explants (1500 mg·L−1, DKW with BA/NAA), 1.7 days; with guayule explants (1500 mg·L−1, MS with BA/NAA) it was 2.1 days. Moreover, the “Number of elongated shoots” value is listed as 6/30 in the test on guayule explants (100 mg·L−1, DKW with 0.75 mg·L−1 BA and 0.25 mg·L−1 NAA, per total explants); 3/30 in the test with guayule explants (100 mg·L−1, MS with 1.0 mg·L−1 BA and 0.1 mg·L−1 NAA, per total explants); 3/30 with guayule explants (250 mg·L−1, DKW with BA/NAA, per total explants); 13/30 in the test on guayule explants (250 mg·L−1, MS with BA/NAA, per total explants); 0/30 in the test on guayule explants (500 mg·L−1, DKW with BA/NAA, per total explants); 6/30 with guayule explants (500 mg·L−1, MS with BA/NAA, per total explants). The “Number of elongated shoots” value is listed as 0/30 with guayule explants (1000 mg·L−1, DKW with BA/NAA, per total explants); 0/30 with guayule explants (1000 mg·L−1, MS with BA/NAA, per total explants); 0/30 with guayule explants (1500 mg·L−1, DKW with BA/NAA, per total explants); 0/30 in the test on guayule explants (1500 mg·L−1, MS with BA/NAA, per total explants); “significantly improved” in the test with guayule explants (moderate concentrations (0, 100, 250, 500 and 1000 mg·L−1), MS and DKW medium). Further, the “effect on elongated shoots” value in the test on guayule explants (higher concentrations) is “negative effect”.

For `CN[C@@H]1[C@H](O)[C@H](NC)[C@H]2O[C@@]3(O)C(=O)C[C@@H](C)O[C@H]3O[C@@H]2[C@H]1O` [spectinomycin], the “concentration fatal to guayule plants” value in the test on guayule leaf explants was “about 12 mg/L”. The “Callus formation and shoot emergence” value in the test on guayule leaf explants (8 mg·L−1, DKW regeneration medium) is recorded as “not affected”; in the test on guayule leaf explants (10 mg·L−1, DKW regeneration medium) it was “significantly reduced”; in the test with guayule leaf explants (12 mg·L−1 or higher, DKW regeneration medium), “completely inhibited”.
